Patent EP0928784B1, “Sertraline polymorph having improved water solubility” (TORCAN CHEMICAL Ltd, priority 1997, dated 1999)
Where a name gives a salt, the structure may show the parent alone. Read-outs that look alike come from different tables or passages of the source.

Legend:
[1] = Solubility in aqueous fluids (qualitative, no method described); format: physicochemical
[2] = Stability of the crystalline form (qualitative, no method described); format: physicochemical; conditions: applicant's statement
[3] = as reported in U.S. Patent 5,248,699, among Forms I-V; cited from earlier work
[4] = Dissolution rate (qualitative, no method described); format: physicochemical; conditions: with regard to bioavailability in pharmaceutical formulations

For `CN[C@H]1CC[C@@H](c2ccc(Cl)c(Cl)c2)c2ccccc21` [sertraline hydrochloride Form I, (1S-cis)-4-(3,4-dichlorophenyl)-1,2,3,4-tetrahydro-N-methyl-1-naphthalenamine], the solubility ([1]; prepared in applicant's laboratory according to Sysko et al., aqueous fluids) is given as “extremely insoluble”, the stability [2] is given as “stable as reported” and the stability [3] is given as “greatest stability”. For the same compound, the dissolution rate [4] was “too slow to provide adequate bioavailability”.
With `CN[C@H]1CC[C@@H](c2ccc(Cl)c(Cl)c2)c2ccccc21` [polymorph T1, (1S-cis)-4-(3,4-dichlorophenyl)-1,2,3,4-tetrahydro-N-methyl-1-naphthalenamine] the “solubility in aqueous fluids” value ([1]; as compared with Form I sertraline hydrochloride) was “enhanced solubility in aqueous fluids” and the stability [2] was “acceptable stability”.
